Where two headings read alike, the source gives them in different places.
Biological target: T1, human APJ receptor (Homo sapiens, UniProt P35414)
T1 construct: expressed in transfected cells
T1 sequence (P35414 1-380): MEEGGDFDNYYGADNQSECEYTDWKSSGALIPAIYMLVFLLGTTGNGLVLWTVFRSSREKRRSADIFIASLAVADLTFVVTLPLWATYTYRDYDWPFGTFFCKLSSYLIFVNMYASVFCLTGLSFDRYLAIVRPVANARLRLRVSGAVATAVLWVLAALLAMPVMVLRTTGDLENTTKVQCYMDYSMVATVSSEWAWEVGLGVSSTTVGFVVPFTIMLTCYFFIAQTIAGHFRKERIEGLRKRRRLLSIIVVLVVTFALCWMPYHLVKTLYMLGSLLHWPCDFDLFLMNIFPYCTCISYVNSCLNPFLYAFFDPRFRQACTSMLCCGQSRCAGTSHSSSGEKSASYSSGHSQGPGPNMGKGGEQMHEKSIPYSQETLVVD
Test: Intracellular cAMP accumulation assay (APJ hcAMP, HTRF)
Type: cell-based
How it was run: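 Inhibition of 2 μM forskolin-driven cAMP ([…] present) measured by HTRF in 5,000 HEK293 cells/well stably expressing human APJ, 30 min, room temperature. EC50 came from a variable-slope sigmoidal fit; Ymax was relative to (Pyr1)apelin-13 set at 100%.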

[1] = Table 1, HEK293 cells stably expressing human APJ receptor, inhibition of forskolin-mediated cAMP production, read-out: APJ hcAMP EC50
[2] = human APJ, cAMP, potency range class, read-out: APJ cAMP Human EC50

Row | Molecule | EC50 [1] | EC50 [2] | EC50 (Table 3, HEK293 cells stably expressing human APJ receptor, read-out: APJ cAMP Human EC50)
1 | COc1cc2nc(-c3cccc(Cl)c3-c3ccc(C(=O)NC(c4ccc(Cl)cc4)C4CC4)cc3C(=O)NS(C)(=O)=O)[nH]c2cc1F (centres unmarked) [Example 206, 2′-chloro-N4-[(4-chlorophenyl)(cyclopropyl)methyl]-6′-(6-fluoro-5-methoxy-1H-1,3-benzodiazol-2-yl)-N2-methanesulfonyl-[1,1′-biphenyl]-2,4-dicarboxamide] | 10 to 100 nM | 10 to 100 nM | 
2 | CCCC(NC(=O)c1ccc(-c2cc(Cl)ccc2-c2nc3ccccc3[nH]2)c(C(=O)O)c1)c1ccccc1OC (centres unmarked) [Example 207, 2′-(1H-1,3-benzodiazol-2-yl)-5′-chloro-4-{[1-(2-methoxyphenyl)butyl]carbamoyl}-[1,1′-biphenyl]-2-carboxylic acid] | < 10 nM | < 10 nM | 
3 | CCCC(NC(=O)c1ccc(-c2cc(Cl)ccc2-c2nc3ccccc3[nH]2)c(C(=O)O)c1)c1ccccc1OC (centres unmarked) [Example 208, 2′-(1H-1,3-benzodiazol-2-yl)-5′-chloro-4-{[1-(2-methoxyphenyl)butyl]carbamoyl}-[1,1′-biphenyl]-2-carboxylic acid] | < 10 nM |  | 
4 | O=C(NC(CC1CCOCC1)c1ccccc1)c1ccc(-c2cc(Cl)ccc2-c2nc3ccccc3[nH]2)c(C(=O)O)c1 (centres unmarked) [Example 216, 2′-(1H-1,3-benzodiazol-2-yl)-5′-chloro-4-{[2-(oxan-4-yl)-1-phenylethyl]carbamoyl}-[1,1′-biphenyl]-2-carboxylic acid] | 101 to 500 nM | 101 to 500 nM | 
5 | O=C(NC(CC1CCOCC1)c1ccccc1)c1ccc(-c2cc(Cl)ccc2-c2nc3ccccc3[nH]2)c(C(=O)O)c1 (centres unmarked) [Example 217, 2′-(1H-1,3-benzodiazol-2-yl)-5′-chloro-4-{[2-(oxan-4-yl)-1-phenylethyl]carbamoyl}-[1,1′-biphenyl]-2-carboxylic acid] | 101 to 500 nM |  | 
6 | CCCC(NC(=O)c1ccc(-c2cc(Cl)ccc2-c2nc3cc(OC)ccc3[nH]2)c(C(=O)O)c1)c1ccccc1OC (centres unmarked) [Example 218, 5′-chloro-2′-(5-methoxy-1H-1,3-benzodiazol-2-yl)-4-{[1-(2-methoxyphenyl)butyl]carbamoyl}-[1,1′-biphenyl]-2-carboxylic acid] | < 10 nM | < 10 nM | 
7 | O=C(N[C@H](c1ccc(F)cc1)C1CC1)c1ccc(-c2c(Cl)cccc2-c2nc3ccccc3[nH]2)c(C(=O)O)c1 [Example 219, (S)-2′-(1H-1,3-benzodiazol-2-yl)-6′-chloro-4-{[cyclopropyl(4-fluorophenyl)methyl]carbamoyl}-[1,1′-biphenyl]-2-carboxylic acid] | < 10 nM | < 10 nM | 
8 | CCCC(NC(=O)c1ccc(-c2c(Cl)cccc2-c2nc3ccccc3[nH]2)c(C(=O)O)c1)c1ccccc1OC [Example 225, (S)-2′-(1H-1,3-benzodiazol-2-yl)-6′-chloro-4-{[1-(2-methoxyphenyl)butyl]carbamoyl}-[1,1′-biphenyl]-2-carboxylic acid] | < 10 nM | < 10 nM | 
9 | O=C(N[C@@H](CCC(F)(F)F)c1ccccc1)c1ccc(-c2c(Cl)cccc2-c2nc3ccccc3[nH]2)c(C(=O)O)c1 [Example 226, (S)-2′-(1H-1,3-benzodiazol-2-yl)-6′-chloro-4-[(4,4,4-trifluoro-1-phenylbutyl)carbamoyl]-[1,1′-biphenyl]-2-carboxylic acid] | < 10 nM | < 10 nM | 
10 | COC[C@@H](NC(=O)c1ccc(-c2c(Cl)cccc2-c2nc3ccccc3[nH]2)c(C(=O)O)c1)C1CC1 [Example 230, (S)-2′-(1H-1,3-benzodiazol-2-yl)-6′-chloro-4-[(1-cyclopropyl-2-methoxyethyl)carbamoyl]-[1,1′-biphenyl]-2-carboxylic acid] | 101 to 500 nM | 101 to 500 nM | 
11 | COc1cc2nc(-c3cccc(Cl)c3-c3ccc(C(=O)N[C@H](c4ccc(F)cc4)C4CC4)cc3C(=O)O)[nH]c2cc1F [Example 232, (S)-2′-chloro-4-{[cyclopropyl(4-fluorophenyl)methyl]carbamoyl}-6′-(6-fluoro-5-methoxy-1H-1,3-benzodiazol-2-yl)-[1,1′-biphenyl]-2-carboxylic acid] | < 10 nM | < 10 nM | 
12 | CCCC(NC(=O)c1ccc(-c2cc(Cl)ccc2-c2nc3cc(C(C)(C)C)ccc3[nH]2)c(C(=O)O)c1)c1ccccc1OC (centres unmarked) [Example 241, 2′-(5-tert-butyl-1H-1,3-benzodiazol-2-yl)-5′-chloro-4-{[1-(2-methoxyphenyl)butyl]carbamoyl}-[1,1′-biphenyl]-2-carboxylic acid] | < 10 nM | < 10 nM | 
13 | (S)-2′-chloro-4-{[(1R)-1-cyclohexylbutyl]carbamoyl}-6′-(6-fluoro-5-methoxy-1H-1,3-benzodiazol-2-yl)-[1,1′-biphenyl]-2-carboxylic acid [Example 160] | < 10 nM | < 10 nM | 
14 | (S)-2′-chloro-6′-(5- chloro-6-methyl-1H- 1,3-benzodiazol-2- yl)-4-{[(1R)-1- phenylbutyl] carbamoyl}- [1,1′-biphenyl]-2- carboxylic acid [Example 91] | < 10 nM |  | < 10 nM

From patent US11498903B2 (BRISTOL-MYERS SQUIBB COMPANY, priority 2017, dated 2022)
